Our source for the Ki values is patent US11718603B2, “CDK2 inhibitors” (Pfizer Inc., priority 2019, dated 2023).

Like-named read-outs stand apart in the source and are kept apart here.

Assay [1] addresses CDK2/Cyclin E1 (Homo sapiens (Human), UniProt P24941). The assay is described as follows: CDK2/Cyclin E1 full length mobility shift assay. The class given is biochemical.
Protocol: CDK2/Cyclin E1 Full Length Mobility Shift Assay
Wild-type CDK2/wild-type full length Cyclin E1 enzyme complex was produced in-house (baculoviral expression, LJIC-2080/LJIC-2103) and phosphorylated by CDK7/Cyclin H1/Mat1 enzyme complex with CDK2:CDK7 ratio of 50:1 (concentration mg/mL) in the presence of 10 mM MgCl2 and 5 mM ATP at room temperature for one hour. […] The assay was initiated with the addition of ATP, following a fifteen minutes pre-incubation of enzyme and inhibitor at room temperature in the reaction mixture. The reaction was stopped after 45 minutes at room temperature by the addition of 50 μL of 80 mM EDTA.
Assay [2] addresses T1, GSK3β (Homo sapiens, UniProt P49841). The assay can be described thus: biochemical. Particulars: GSK3β Ki (nM).
Protocol: (§1) The assay was initiated with the addition of ATP, following 15 minutes pre-incubation of enzyme and inhibitor at room temperature in the reaction mixture. The reaction was stopped after 30 minutes at room temperature by the addition of 50 μL of 80 mM EDTA.
In assay [3] the target is T1, GSK3β. Conditions: read-out: GSK3β Ki.
Protocol: as §1

Regarding `Cc1ncc(CC(=O)Nc2cc([C@@H]3CC[C@H](OC(=O)N[C@@H]4CCOC[C@H]4C)C3)[nH]n2)s1` (single isomer, unassigned; isomer a) [Example 510, (1S,3R)-3-(3-{[(2-methyl-1,3-thiazol-5-yl)acetyl]amino}-1H-pyrazol-5-yl)cyclopentyl [(3S*,4R*)-3-methyltetrahydro-2H-pyran-4-yl]carbamate- Isomer A], the Ki in assay [1] came to 0.19 nM; in assay [2], 14 nM. Taken in the same sequence, the figures for `Cc1ncc(CC(=O)Nc2cc([C@@H]3CC[C@H](OC(=O)N[C@@H]4CCOC[C@H]4C)C3)[nH]n2)s1` (single isomer, unassigned; isomer b) [Example 511, (1S,3R)-3-(3-{[(2-methyl-1,3-thiazol-5-yl)acetyl]amino}-1H-pyrazol-5-yl)cyclopentyl [(3S*,4R*)-3-methyltetrahydro-2H-pyran-4-yl]carbamate- Isomer B] were 1.52 nM and 4.74 nM. For `Cc1ncc(CC(=O)Nc2cc([C@H]3CC[C@@H](OC(=O)NC(C)C)C3)[nH]n2)s1` [Example 2, (1R,3S)-3-(3-{[(2-methyl-1,3-thiazol-5-yl)acetyl]amino}-1H-pyrazol-5-yl)cyclopentyl propan-2-ylcarbamate], in assay [1], the Ki came to 0.31 nM.

Turning to `CC[C@H](C)NC(=O)O[C@@H]1CC[C@H](c2cc(NC(=O)c3cc(COC)nn3C)n[nH]2)C1` [Example 14, (1R,3S)-3-[3-({[3-(methoxymethyl)-1-methyl-1H-pyrazol-5-yl]carbonyl}amino)-1H-pyrazol-5-yl]cyclopentyl (2S)-butan-2-ylcarbamate], the Ki is 0.27 nM in assay [1] and 294 nM in assay [3]. As to `COc1ccc(CC(=O)Nc2cc([C@@H]3CC[C@H](OC(=O)N4CCC4(C)C)C3)[nH]n2)cn1` [Example 145], the Ki in assay [1] came out at 0.12 nM. With `Cc1cc(CC(=O)Nc2cc([C@H]3CC[C@@H](OC(=O)N4CCCC[C@@H]4C)C3)[nH]n2)on1` [Example 640, (1R,3S)-3-(3-{[(3-methyl-1,2-oxazol-5-yl)acetyl]amino}-1H-pyrazol-5-yl)cyclopentyl(2S)-2-methylpiperidine-1-carboxylate], in assay [3], the Ki is 13.3 nM.

A word on the Ki: it is the equilibrium dissociation constant of an inhibitor or competing ligand from its target.
